# Source: article PMC3381515 (Immunity, 2011)
# System: TCR and CD8 on F5 T cells
# Test: Micropipette adhesion frequency assay, F5 T cells vs pMHC-coated RBCs
# Type: binding, mouse
# Details: 32 NP68:H-2D^b/μm^2, BAPTA-AM 50 μM, PD98059 50 μM
smiles,measurement,value
CC(=O)OCOC(=O)CN(CC(=O)OCOC(C)=O)c1ccccc1OCCOc1ccccc1N(CC(=O)OCOC(C)=O)CC(=O)OCOC(C)=O [BAPTA-AM],effect on two-stage kinetics / upregulated adhesion,two-stage kinetics were unaffected
